Activity calls are given as the source filed them. The rule behind the calls is not given here.
How the values were obtained:
RAW264.7 [1] = assay: Cytotoxicity against mouse RAW264.7 cells assessed as reduction in cell viability at < 640 uM incubated for 24 hrs by CCK8 assay; type: toxicity, cell-based; details: raw264.7, 24 h
RAW264.7 [2] = assay: Antiinflammatory activity in LPS induced mouse RAW264.7 cells reduction in ROS production incubated for 24 hrs by DCFH-DA staining based microplate reader analysis; type: functional, cell-based
[3] = biological target: Aldo-keto reductase family 1 member B1 (Mus musculus) (UniProt P45376); assay: Induction of thermal stabilization of AKR1B1 in mouse RAW264.7 cells at 50 uM at 45 to 75 degreeC incubated for 2 hrs by cellular thermal shift assay; type: cell-based
RAW264.7 [4] = assay: Antiinflammatory activity in LPS induced mouse RAW264.7 cells assessed as reduction in NO production incubated for 24 hrs by Griess reagent based assay; type: functional, cell-based
RAW264.7 [5] = assay: Cytotoxicity against mouse RAW264.7 cells assessed as reduction in cell viability at 1080 uM incubated for 24 hrs by CCK8 assay; type: toxicity, cell-based; details: raw264.7, 24 h
RAW264.7 [6] = assay: Antiinflammatory activity in LPS induced mouse RAW264.7 cells assessed as reduction in TNFalpha production at 50 uM incubated for 24 hrs by ELISA; type: functional, cell-based
RAW264.7 [7] = assay: Antiinflammatory activity in LPS induced mouse RAW264.7 cells assessed as reduction in IL-6 production at 50 uM incubated for 24 hrs by ELISA; type: functional, cell-based
RAW264.7 [8] = assay: Antiinflammatory activity in LPS induced mouse RAW264.7 cells assessed as reduction in NO production at 50 uM incubated for 24 hrs by Griess reagent based assay; type: functional, cell-based
RAW264.7 [9] = assay: Antiinflammatory activity in LPS induced mouse RAW264.7 cells reduction in ROS production at 50 uM incubated for 24 hrs by DCFH-DA staining based microplate reader analysis; type: functional, cell-based

SMILES	Activity (RAW264.7 [1])	Activity (RAW264.7 [2])	Activity [3]	Activity (RAW264.7 [4])	Activity (RAW264.7 [5])	Activity (RAW264.7 [6])	Activity (RAW264.7 [7])	Activity (RAW264.7 [8])	Activity (RAW264.7 [9])
O=C(/C=C/c1ccc(O)c(O)c1)O[C@@H]1C[C@@](O)(C(=O)O)C[C@@H](O)[C@@H]1O	Non-toxic	Dose-dependent-effect	Active	Dose-dependent-effect	Toxic	–	–	–	–
O=C(/C=C/c1ccc(O)c(O)c1)O[C@H]1[C@H](O)C[C@](O)(C(=O)O)C[C@H]1O	Non-toxic	Dose-dependent-effect	Active	Dose-dependent-effect	Toxic	Active; Showed Higher Activity Compared To 5-Cqa	–	–	–
O=C(/C=C/c1ccc(O)c(O)c1)O[C@@H]1C[C@](O)(C(=O)O)C[C@@H](O)[C@H]1O [CHLOROGENIC ACID]	Non-toxic	Dose-dependent-effect	Active	Dose-dependent-effect	Toxic	Active; Showed Higher Activity Compared To 4-Cqa And 5-Cqa	Active; Showed Higher Activity Compared To 4-Cqa And 5-Cqa	Active; Showed Higher Activity Compared To 4-Cqa And 5-Cqa	Active
CC(/C=C1\SC(=S)N(CC(=O)O)C1=O)=C\c1ccccc1	–	–	–	–	–	Active	Active	–	–
